The subject of one data set is AA8. In words: Clonogenic survival - DNA mutant repair cells. The conditions noted are these: Cricetulus griseus.
A further data set concerns NCI-H460 cells. In words: Clonogenic assay - oxygen dependence. The settings on record: Homo sapiens.
In data set [1] the test system is HT-29 human colon carcinoma xenograft. As to the kind of experiment: HT-29 human colon carcinoma xenograft mouse model (Example 47). The settings on record: for % Inhibition vs Group 1: vs vehicle. In kind it is in vivo. The protocol: Female CB17/SCID mice (purchased from Charles River, Cambridge, Mass.), 7-8 weeks of age, were allowed to acclimatize for at least three days, and handled under pathogen-free conditions. Human colon carcinoma cell line HT-29 was obtained from the American Type Culture Collection. The cell lines were cultured in RPMI 1640 media supplemented with 10% fetal bovine serum. Cells were maintained in a 37° C. incubator with 5% CO2. The HT-29 cells were harvested from culture and inoculated at 3×10^6 cells/animal in the peritoneal subcutaneous space. When the tumors grew to an average volume of 100 mm^3 (day 8), each group of 10 mice was administered, for three weeks, vehicle alone (saline and PEG (10 mL/kg each), Group 1), Compound 36 alone (dissolved in 30% cyclodextrin in PBS) at a daily dose of 20, 60, or 200 mg/kg (Groups 2, 3 and 4, respectively), and Compound 36 at a daily dose of 20, 60, and 200 mg/kg given 2-3 hours after a dose of 10 mg/kg of 5FU (in saline) (Group 5, 6 and 7, respectively) and compared to a group receiving only 5FU at 10 mg/kg (Group 8) as tabulated below.
The body weight of each mouse was recorded twice per week. Growth of each xenograft was monitored by externally measuring tumors in two dimensions using a digital caliper twice per week. Tumor volume (V) was determined by the following equation: V=(L×W^2)/2, where L is the length and W is the width of a xenograft. Tumor volumes were measured twice weekly.

Read-outs that look alike come from different tables or passages of the source.

As to `Cn1c(COP(=O)(NCCBr)NCCBr)cnc1[N+](=O)[O-]` [Compound 25], the IC90 was greater than 300000 nM with AA8 (CHO-AA8, read-out: IC90 AA8 Air); 850 nM with AA8 (CHO-AA8, read-out: IC90 AA8 N2); 400 nM with NCI-H460 cells (NCI-H460, read-out: IC90 H460 0.1% O2); 5000 nM with NCI-H460 cells (NCI-H460, read-out: IC90 H460 0.6% O2); 30000 nM in the data set on NCI-H460 cells (NCI-H460, read-out: IC90 H460 Air); 100 nM with NCI-H460 cells (NCI-H460, read-out: IC90 H460 N2).

For the molecule `Cn1c(COP(=O)(NCCCl)NCCCl)cnc1[N+](=O)[O-]` [Compound 36], the “% Inhibition vs Group 1” value in data set [1] (Group 2: Compound 36 20 mg/kg daily, 3 weeks) was 34.6%; in data set [1] (Group 3: Compound 36 60 mg/kg daily) it was 16.1%; in data set [1] (Group 4: Compound 36 200 mg/kg daily), 20.2%. Further, the “body weight and mortality” value in data set [1] (particularly high dose group) was “some degree of weight loss and occasional mortality”.

The values above are taken from patent US8507464B2, “Phosphoramidate alkylator prodrugs” (Threshold Pharmaceuticals, Inc., priority 2005, dated 2013).
